Data taken from US10155722B2, “Antitumor compound targeting IDH2 mutation and method of use thereof” (CHIA TAI TIANQING PHARMACEUTICAL GROUP CO., LTD., priority 2015, dated 2018).
Where two headings read alike, the source gives them in different places. Blank lines part the entries; values can stand above or below the compound they belong to.

Tests used:
[1] = test system: glioma cells; conditions: oral administration to mice with a transplanted tumour; cited from earlier work
[2] = test system: cells carrying the most common IDH1 mutant; conditions: cited from earlier work
[3] = test system: glioma cells; conditions: treatment of cell cultures; cited from earlier work
[4] = test system: glioma cells carrying the IDH1 mutant; conditions: cited from earlier work
[5] = Pharmacokinetics parameters in rats after intragastric administration; type: in vivo; conditions: for AUC(0-inf) / Cmax / Tmax / half-life: rat, po, male rats, intragastric, single dose 5 mg/kg, plasma; for half-life (in words) / metabolism in vivo (in words) / plasma concentration compared with AG-6780 at the same dose: rats, 5 mg/kg intragastric
Method: The pharmacokinetic parameters of compounds of the present application were determined by using the following method.
Healthy male adult rats (7-9 weeks old) were used in this study. Each group of animals (3 male rats) was intragastrically administered once at a single dose of 5 mg/kg with 10% DMSO+70% PEG400+20% NS as adjuvants. The animals in the intragastric administration group were fasted overnight before this study. The fasting time period was from 10 hours before administration to 4 hours after administration.
Blood samples were taken at 0.25, 0.5, 1, 2, 4, 6, 8 and 24 h after administration. The animals were anesthetized with isoflurane using an animal anesthesia machine, and then 0.3 mL whole blood samples were taken from the fundus venous plexus. The blood samples were placed in heparin anticoagulant tubes, and centrifuged for 5 min at 4° C. and 4000 rpm. The resulting plasmas were transferred to centrifuge tubes, and stored at −80° C. until analysis.
Verified LC-MS/MS method was used to analyze the plasma samples. Plasma concentration-time data of animals were analyzed using WinNonlin (Professional Edition, version 6.3; Pharsight Company) software. The non-compartmental model was introduced for concentration analysis.

[6] = test system: cells carrying the most common IDH2 mutant; conditions: cited from earlier work
[7] = test system: leukemia cells carrying the IDH2 mutant; conditions: cited from earlier work
[8] = target: IDH2 (R172K, 40-end) (Homo sapiens (Human), UniProt P48735, R172K); assay: IDH2 (R172K, 40-end) inhibitory activity, NADPH depletion with diaphorase/resazurin readout; type: biochemical; conditions: 80 nM enzyme, 40 μM NADPH, 4 mM α-KG
Chain of IDH2 (R172K, 40-end) (P48735 40-452 R172K): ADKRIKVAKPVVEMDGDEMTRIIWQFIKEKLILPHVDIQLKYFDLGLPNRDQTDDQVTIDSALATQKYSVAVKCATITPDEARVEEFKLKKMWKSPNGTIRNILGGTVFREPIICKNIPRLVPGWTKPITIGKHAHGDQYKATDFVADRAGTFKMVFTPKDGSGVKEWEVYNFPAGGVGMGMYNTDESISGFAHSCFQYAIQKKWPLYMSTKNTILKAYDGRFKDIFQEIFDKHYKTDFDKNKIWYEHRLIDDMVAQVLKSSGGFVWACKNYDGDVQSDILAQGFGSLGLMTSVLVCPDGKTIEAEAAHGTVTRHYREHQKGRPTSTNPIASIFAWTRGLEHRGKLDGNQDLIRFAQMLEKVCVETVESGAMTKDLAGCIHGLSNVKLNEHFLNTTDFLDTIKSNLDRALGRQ
Method: The inhibitory activity of a compound against IDH2 (R172K, 40-end) was determined by the decrease of a helper factor NADPH. The test compound was pre-incubated with an enzyme and NADPH, and then a reaction was initiated by the addition of a-KG, and performed for 120 minutes under a linear condition. Then, the reaction was terminated by the addition of diaphorase (lipoamide dehydrogenase) and the corresponding substrate resazurin. Diaphorase terminated the IDH2m reaction by decreasing the available helper factor NADPH, which oxidized NADPH to NADP, and reduced resazurin to highly fluorescent resorufin. The amount of remaining helper factor NADPH after a specific reaction time was quantified via an easily detectable fluorophore. Specifically, 2.5 μl of a 3-fold gradient diluted test compound was added to a 384-well plate, and then 5 μl of a reaction buffer (20 mM Tris-HCl, PH7.5; 150 mM NaCl; 10 mM MgC12; 10 mM MnCl2; 0.4 mg/ml BSA and 2 mM DTT) containing 80 nM IDH2 (R172K, 40-end) and 40 μM NADPH was added. Then, the resulting test mixture was incubated for 120 minutes at a temperature of 23° C., and then 2.5 μl of the reaction buffer containing 4 mM α-KG was added to initiate the reaction. After incubating for 120 minutes at room temperature, 5 μl of a termination mixture (0.4 U/ml diaphorase and 40 μM resazurin) prepared with the reaction buffer was added to convert resazurin to resorufin to determine the remaining NADPH. After incubating for 10 minutes at a temperature of 23° C., a fluorescence value was determined through Flexstation 3 at Ex535/Em595.

- IC50 [8]: 69.9 nM
SMILES: CC(C(=O)NC1CC1)c1ccc(-c2ccsc2)c(NC(=O)Nc2cccc(C(F)(F)F)c2)c1 (centres unmarked) [Example 14, N-cyclopropyl-2-(4-(thiophen-3-yl)-3-(3-(3-(trifluoromethyl)phenyl)ureido)phenyl) propanamide]

- IC50 [8]: 362 nM
SMILES: CCC(C(=O)NC1CC1)c1ccc(-c2ccsc2)c(NC(=O)Nc2cccc(C(F)(F)F)c2)c1 (centres unmarked) [Example 20, N-cyclopropyl-2-(4-(thiophen-3-yl)-3-(3-(3-(trifluoromethyl)phenyl)ureido)phenyl) butanamide]

- IC50 [8]: 622 nM
SMILES: NC(C(=O)NC1CC1)c1ccc(-c2ccsc2)c(NC(=O)Nc2cccc(C(F)(F)F)c2)c1 (centres unmarked) [Example 21, 2-Amino-N-cyclopropyl-2-(4-(thiophen-3-yl)-3-(3-(3-(trifluoromethyl)phenyl)ureido)phenyl)acetamide]

- IC50 [8]: 551 nM
SMILES: O=C(Nc1cccc(C(F)(F)F)c1)Nc1cc(C(=O)NC2CC2)ccc1-c1ccsc1 [Example 23, N-cyclopropyl-4-(thiophen-3-yl)-3-(3-(3-(trifluoromethyl)phenyl)ureido)benzamide]

- IC50 [8]: 312 nM
SMILES: CC(NC1CC1)c1ccc(-c2ccsc2)c(NC(=O)Nc2cccc(C(F)(F)F)c2)c1 (centres unmarked) [Example 24, 1-(5-(1-(cyclopropylamino)ethyl)-2-(thiophen-3-yl)phenyl)-3-(3-(trifluoromethyl)phenyl)urea]

- IC50 [8]: 82.9 nM
SMILES: CC(NC(=O)C1CC1)c1ccc(-c2ccsc2)c(NC(=O)Nc2cccc(C(F)(F)F)c2)c1 (centres unmarked) [Example 27, N-(1-(4-(thiophen-3-yl)-3-(3-(3-(trifluoromethyl)phenyl)ureido)phenyl)ethyl) cyclopropanecarboxamide]

- AUC(0-inf) [5]: 844 ng·h/mL
- Cmax [5]: 414 ng/mL
- Tmax [5]: 19.8 min
- half-life [5]: 140 min
- half-life (in words) [5]: long half-life
- metabolism in vivo (in words) [5]: very good metabolism in vivo
- plasma concentration compared with AG-6780 at the same dose [5]: higher plasma concentration
- IC50 [8]: 55 nM
SMILES: O=C(Nc1cccc(C(F)(F)F)c1)Nc1cc(CNC(=O)C2CC2)ccc1-c1ccsc1 [Example 28, N-(4-(thiophen-3-yl)-3-(3-(3-(trifluoromethyl)phenyl)ureido)benzyl) cyclopropanecarboxamide]

Further lines, the compound ahead of its results:

SMILES: Cc1ccccc1C(C(=O)NC1CCCCC1)N(C(=O)Cn1ccnc1C)c1cccc(F)c1 (centres unmarked) [AGI-5198]
- growth rate of glioma cells [1]: inhibit the growth rate
- generation of 2-HG [2]: inhibit the generation of 2-HG
- growth rate of glioma cells [3]: inhibit the growth rate
- expression of mature markers [4]: enhanced expression of mature markers

SMILES: O=C(Nc1cccc(C(F)(F)F)c1)Nc1cc(S(=O)(=O)NC2CC2)ccc1-c1ccsc1 [AGI-6780, reference compound]
- AUC(0-inf) [5]: 559 ng·h/mL
- Cmax [5]: 191 ng/mL
- Tmax [5]: 170 min
- half-life [5]: 89.4 min
- generation of 2-HG [6]: inhibit the generation of 2-HG
- expression of mature markers [7]: enhanced expression of mature markers

SMILES: O=C(Nc1cccc(C(F)(F)F)c1)Nc1cc(C(F)(F)C(=O)NC2CC2)ccc1-c1ccsc1 [Example 1, N-cyclopropyl-2,2-difluoro-2-(4-(thiophen-3-yl)-3-(3-(3-(trifluoromethyl)phenyl)ureido)phenyl)acetamide]
- IC50 [8]: 14.2 nM

SMILES: O=C(Nc1cccc(C(F)(F)F)c1)Nc1cc(C(F)(F)C(=O)NCC(F)(F)F)ccc1-c1ccsc1 [Example 2]
- IC50 [8]: 45.5 nM

SMILES: CC(C)NC(=O)C(F)(F)c1ccc(-c2ccsc2)c(NC(=O)Nc2cccc(C(F)(F)F)c2)c1 [Example 3]
- IC50 [8]: 62.4 nM

SMILES: N#CC1(NC(=O)C(F)(F)c2ccc(-c3ccsc3)c(NC(=O)Nc3cccc(C(F)(F)F)c3)c2)CC1 [Example 4, N-(1-cyanocyclopropyl)-2,2-difluoro-2-(4-(thiophen-3-yl)-3-(3-(3-(trifluoromethyl)phenyl)ureido)phenyl)acetamide]
- IC50 [8]: 56.5 nM

SMILES: O=C(Nc1cccc(C(F)(F)F)c1)Nc1cc(C(F)(F)C(=O)NC2COC2)ccc1-c1ccsc1 [Example 5, 2,2-Difluoro-N-(oxetan-3-yl)-2-(4-(thiophen-3-yl)-3-(3-(3-(trifluoromethyl)phenyl)ureido)phenyl)acetamide]
- AUC(0-inf) [5]: 858 ng·h/mL
- Cmax [5]: 495 ng/mL
- Tmax [5]: 25.2 min
- half-life [5]: 262 min
- half-life (in words) [5]: long half-life
- metabolism in vivo (in words) [5]: very good metabolism in vivo
- plasma concentration compared with AG-6780 at the same dose [5]: higher plasma concentration
- IC50 [8]: 29.5 nM

SMILES: O=C(Nc1ccc(F)c(C(F)(F)F)c1)Nc1cc(C(F)(F)C(=O)NC2CC2)ccc1-c1ccsc1 [Example 10, N-cyclopropyl-2,2-difluoro-2-(3-(3-(4-fluoro-3-(trifluoromethyl)phenyl)ureido)-4-(thiophen-3-yl)phenyl)acetamide]
- IC50 [8]: 391 nM

SMILES: O=C(Nc1cccc(C(F)(F)F)c1)Nc1cc(C(F)(F)C(=O)NC2CC2)ccc1-c1ccccc1 [Example 12, N-cyclopropyl-2,2-difluoro-2-(2-(3-(3-(trifluoromethyl)phenyl)ureido)-[1,1′-biphenyl]-4-yl)acetamide]
- IC50 [8]: 53.8 nM

SMILES: Cc1cc(-c2ccc(C(F)(F)C(=O)NC3CC3)cc2NC(=O)Nc2cccc(C(F)(F)F)c2)n(C)n1 [Example 13, N-cyclopropyl-2-(4-(1,3-dimethyl-1H-pyrazol-5-yl)-3-(3-(3-(trifluoromethyl)phenyl)ureido)phenyl)-2,2-difluoroacetamide]
- IC50 [8]: 106 nM

SMILES: CC(C)(C(=O)NC1CC1)c1ccc(-c2ccsc2)c(NC(=O)Nc2cccc(C(F)(F)F)c2)c1 [Example 15, N-cyclopropyl-2-methyl-2-(4-(thiophen-3-yl)-3-(3-(3-(trifluoromethyl)phenyl)ureido)phenyl)propanamide]
- IC50 [8]: 65.7 nM

SMILES: O=C(Cc1ccc(-c2ccsc2)c(NC(=O)Nc2cccc(C(F)(F)F)c2)c1)NC1CC1 [Example 16]
- IC50 [8]: 75.8 nM

SMILES: O=C(Nc1cccc(C(F)(F)F)c1)Nc1cc(C2(C(=O)NC3CC3)CC2)ccc1-c1ccsc1 [Example 17, N-cyclopropyl-1-(4-(thiophen-3-yl)-3-(3-(3-(trifluoromethyl)phenyl)ureido)phenyl) cyclopropanecarboxamide]
- IC50 [8]: 138 nM

SMILES: CC(C)(C(=O)NC1CC1)c1ccc(-c2ccsc2)c(NC(=O)Nc2ccc3c(c2)C(=O)NC3)c1 [Example 18, N-cyclopropyl-2-methyl-2-(3-(3-(3-oxoisoindol-5-yl)ureido)-4-(thiophen-3-yl)phenyl) propanamide]
- IC50 [8]: 1230 nM

SMILES: O=C(Nc1cccc(C(F)(F)F)c1)Nc1cc(C2(C(=O)NC3CC3)CCC2)ccc1-c1ccsc1 [Example 19, N-cyclopropyl-1-(4-(thiophen-3-yl)-3-(3-(3-(trifluoromethyl)phenyl)ureido)phenyl) cyclobutanecarboxamide]
- IC50 [8]: 87.5 nM
